Molecules are shown by their SMILES. Where “and” joins values, the source holds several entries; their conditions need not be identical. Equal entries are not always repeated. Calls of active or inactive are those of the source.

Consider four molecules from ChEMBL document CHEMBL1201862, “PubChem BioAssay data set” (2004).

Assay [1] is described as follows: cytotoxicity toward NIH3T3 fibroblasts, dose response, counter-screen, cell-based, ATP luminescence, mouse fibroblasts (AID 2010).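 Further: cells exposed to compound for about 90 hours before reading.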 The class given is functional.
The next assay deals with T1, Hexokinase HKDC1 (Homo sapiens, UniProt Q2TB90).
T1 sequence (Q2TB90 whole entry): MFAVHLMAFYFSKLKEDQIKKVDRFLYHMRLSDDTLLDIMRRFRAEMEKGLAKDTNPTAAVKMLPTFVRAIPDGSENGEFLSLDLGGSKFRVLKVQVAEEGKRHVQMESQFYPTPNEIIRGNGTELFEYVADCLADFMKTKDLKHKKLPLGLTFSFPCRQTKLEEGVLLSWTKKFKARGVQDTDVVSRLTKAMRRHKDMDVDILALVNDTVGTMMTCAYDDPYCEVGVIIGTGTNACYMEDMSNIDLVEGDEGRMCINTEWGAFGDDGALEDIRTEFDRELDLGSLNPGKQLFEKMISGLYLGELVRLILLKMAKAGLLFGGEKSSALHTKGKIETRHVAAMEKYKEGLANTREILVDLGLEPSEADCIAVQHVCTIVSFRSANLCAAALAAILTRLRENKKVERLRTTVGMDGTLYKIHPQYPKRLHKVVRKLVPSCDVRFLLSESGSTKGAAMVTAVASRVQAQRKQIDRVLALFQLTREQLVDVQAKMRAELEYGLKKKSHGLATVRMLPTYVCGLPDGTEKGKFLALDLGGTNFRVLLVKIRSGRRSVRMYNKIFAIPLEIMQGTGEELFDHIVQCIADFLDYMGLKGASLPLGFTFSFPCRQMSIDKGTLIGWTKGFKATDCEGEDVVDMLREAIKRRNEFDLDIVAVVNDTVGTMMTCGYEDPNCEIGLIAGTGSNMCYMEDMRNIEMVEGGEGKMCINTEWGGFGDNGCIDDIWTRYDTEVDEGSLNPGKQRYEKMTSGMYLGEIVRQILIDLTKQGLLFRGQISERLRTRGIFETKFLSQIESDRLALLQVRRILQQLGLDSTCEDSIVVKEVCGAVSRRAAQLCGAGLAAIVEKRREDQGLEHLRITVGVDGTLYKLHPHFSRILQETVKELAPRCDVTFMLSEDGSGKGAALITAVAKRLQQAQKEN
Briefly: HKDC1 hexokinase inhibitors, dose response, biochemical, W721R variant (AID 504729). The class given is functional.

Assay [2] concerns the target 1-phosphatidylinositol 4,5-bisphosphate phosphodiesterase beta-3 (Homo sapiens, UniProt Q01970). Briefly: Fluorescence-based biochemical high throughput dose response assay to identify inhibitors of phospholipase C isozymes (PLC-B3).
Assay [3] addresses Guanyl-specific ribonuclease T1 (Aspergillus oryzae (strain ATCC 42149 / RIB 40), UniProt P00651). Briefly: RNase T1 inhibitors, dose response, counter-screen for TPT1 inhibitor project, biochemical, fluorescence polarization, 1536-well (AID 2167).
Assay [4] concerns the target T2, Dual specificity protein phosphatase 3 (Homo sapiens, UniProt P51452). Briefly: SAR VHR1 absorbance Assay for In Vitro dose response studies. [Related pubchem assays (depositor defined):AID1654, AID1661, AID1878, AID1992, AID2004].
In a further assay the target is ORF 73 (Human herpesvirus 8, UniProt O40947). Briefly: inhibitors of C-LANA binding to LBS DNA, dose response, biochemical, fluorescence polarization, cherry-picked samples (AID 504725).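 Further: fluorescence polarization of a labeled DNA duplex reporting LANA DNA binding; potency is for inhibitors that block LANA binding to the DNA.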 The arrangement: species or system Human gammaherpesvirus 8.
Assay [5] addresses T2, Dual specificity protein phosphatase 3. Briefly: SAR VHR1 Fluorescent Assay for In Vitro dose response studies Set 2. [Related pubchem assays (depositor defined):AID1654, AID1661, AID1878]. In kind it is functional.
Assay [6] deals with Serine/threonine-protein phosphatase (Homo sapiens, UniProt Q9BPW0). Briefly: PP5 phosphatase inhibitors, dose response, biochemical, fluorescence (AID 2395).
The target of a further assay is T3, Caspase-3 (Homo sapiens, UniProt P42574).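 Further: Dose-response selectivity test against caspase-3 for candidate inhibitors of sentrin-specific proteases (SENPs).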
T3 sequence (P42574 whole entry): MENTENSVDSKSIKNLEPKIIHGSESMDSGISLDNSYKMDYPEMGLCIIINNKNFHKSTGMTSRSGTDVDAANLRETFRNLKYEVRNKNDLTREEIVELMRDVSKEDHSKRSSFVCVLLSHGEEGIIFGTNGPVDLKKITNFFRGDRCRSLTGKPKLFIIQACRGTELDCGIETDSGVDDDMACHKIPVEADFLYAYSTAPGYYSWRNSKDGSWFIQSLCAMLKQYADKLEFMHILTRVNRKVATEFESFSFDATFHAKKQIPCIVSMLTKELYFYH
In kind it is functional.

Assay [7] has as its target Ras and Rab interactor 1/Tyrosine-protein kinase ABL1 (Homo sapiens, UniProt P00519+Q13671). In kind it is functional.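 Further: biochemical TR-FRET dose-response test measuring inhibition of binding between Rin1 and Abl proteins.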
The target of assay [8] is T4, Sentrin-specific protease 8 (Homo sapiens, UniProt Q96LD8).
T4 sequence (Q96LD8 whole entry): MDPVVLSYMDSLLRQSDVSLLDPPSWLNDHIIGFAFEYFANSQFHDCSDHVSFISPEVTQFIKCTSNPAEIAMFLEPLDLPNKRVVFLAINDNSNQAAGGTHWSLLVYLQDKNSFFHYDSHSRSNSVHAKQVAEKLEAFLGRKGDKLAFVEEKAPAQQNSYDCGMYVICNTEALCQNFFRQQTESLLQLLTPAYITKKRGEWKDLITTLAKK
In kind it is functional.

A short description of assay [9]: inhibitors of SNCA 5'UTR-driven reporter translation, confirmation, H4 neuroglioma cells, luminescence (AID 1988). In kind it is functional, cell-based.
The nature of assay [10]: Luminescence-based dose response cell-based high throughput screening assay for cytotoxic compounds using the IEC-6 intestinal epithelial cell line. [Related pubchem assays: 1858 (Summary AID.), 1825 (Counterscreen.), 1907 (Confirmation screen.)]. In kind it is functional.
Assay [11] is described as follows: Counterscreen for AddAB inhibitors: absorbance-based bacterial cell-based high throughput dose response assay for inhibitors of bacterial viability. [Related pubchem assays (depositor defined):AID435030, AID449728, AID449731, AID488942, AID488955, AID488956]. The class given is functional.

T2 sequence (P51452 whole entry): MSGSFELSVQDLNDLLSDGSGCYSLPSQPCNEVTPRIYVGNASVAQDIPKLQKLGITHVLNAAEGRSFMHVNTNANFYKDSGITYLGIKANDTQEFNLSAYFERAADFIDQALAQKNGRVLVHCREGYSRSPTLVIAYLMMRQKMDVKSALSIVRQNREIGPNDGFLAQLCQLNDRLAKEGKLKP
Chain of Guanyl-specific ribonuclease T1 (P00651 whole entry): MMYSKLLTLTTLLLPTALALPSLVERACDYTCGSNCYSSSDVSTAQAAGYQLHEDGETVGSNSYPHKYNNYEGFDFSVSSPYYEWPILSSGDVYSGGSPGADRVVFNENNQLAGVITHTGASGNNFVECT
Chain of Ras and Rab interactor 1/Tyrosine-protein kinase ABL1 (P00519 whole entry): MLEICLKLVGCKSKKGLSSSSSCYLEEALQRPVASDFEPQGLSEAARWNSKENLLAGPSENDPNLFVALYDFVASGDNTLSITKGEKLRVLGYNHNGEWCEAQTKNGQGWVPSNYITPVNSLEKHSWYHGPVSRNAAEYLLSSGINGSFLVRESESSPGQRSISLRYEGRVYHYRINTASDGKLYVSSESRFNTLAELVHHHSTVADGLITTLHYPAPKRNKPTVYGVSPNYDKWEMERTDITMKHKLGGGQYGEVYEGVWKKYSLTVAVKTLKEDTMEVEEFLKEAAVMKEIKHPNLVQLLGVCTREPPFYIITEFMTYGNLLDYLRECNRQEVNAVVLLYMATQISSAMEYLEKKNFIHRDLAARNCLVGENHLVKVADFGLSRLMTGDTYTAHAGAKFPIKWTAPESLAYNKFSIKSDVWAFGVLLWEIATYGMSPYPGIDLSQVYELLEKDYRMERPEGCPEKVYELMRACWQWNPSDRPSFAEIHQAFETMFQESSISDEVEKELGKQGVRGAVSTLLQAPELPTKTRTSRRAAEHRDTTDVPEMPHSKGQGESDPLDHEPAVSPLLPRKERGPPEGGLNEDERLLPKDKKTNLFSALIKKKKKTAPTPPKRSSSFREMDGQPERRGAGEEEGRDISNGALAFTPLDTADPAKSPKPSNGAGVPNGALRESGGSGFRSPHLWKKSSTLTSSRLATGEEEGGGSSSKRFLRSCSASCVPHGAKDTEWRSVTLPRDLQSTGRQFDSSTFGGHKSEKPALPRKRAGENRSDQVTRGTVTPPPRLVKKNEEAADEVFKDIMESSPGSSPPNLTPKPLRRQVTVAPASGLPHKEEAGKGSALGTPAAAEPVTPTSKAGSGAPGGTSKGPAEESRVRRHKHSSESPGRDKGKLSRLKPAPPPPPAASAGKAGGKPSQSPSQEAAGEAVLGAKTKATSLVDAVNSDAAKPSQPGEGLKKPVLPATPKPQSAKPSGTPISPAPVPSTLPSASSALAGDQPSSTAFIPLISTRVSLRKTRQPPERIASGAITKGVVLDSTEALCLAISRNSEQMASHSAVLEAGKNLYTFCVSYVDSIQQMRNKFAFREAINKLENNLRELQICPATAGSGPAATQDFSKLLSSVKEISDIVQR
Chain of Ras and Rab interactor 1/Tyrosine-protein kinase ABL1 (Q13671 whole entry): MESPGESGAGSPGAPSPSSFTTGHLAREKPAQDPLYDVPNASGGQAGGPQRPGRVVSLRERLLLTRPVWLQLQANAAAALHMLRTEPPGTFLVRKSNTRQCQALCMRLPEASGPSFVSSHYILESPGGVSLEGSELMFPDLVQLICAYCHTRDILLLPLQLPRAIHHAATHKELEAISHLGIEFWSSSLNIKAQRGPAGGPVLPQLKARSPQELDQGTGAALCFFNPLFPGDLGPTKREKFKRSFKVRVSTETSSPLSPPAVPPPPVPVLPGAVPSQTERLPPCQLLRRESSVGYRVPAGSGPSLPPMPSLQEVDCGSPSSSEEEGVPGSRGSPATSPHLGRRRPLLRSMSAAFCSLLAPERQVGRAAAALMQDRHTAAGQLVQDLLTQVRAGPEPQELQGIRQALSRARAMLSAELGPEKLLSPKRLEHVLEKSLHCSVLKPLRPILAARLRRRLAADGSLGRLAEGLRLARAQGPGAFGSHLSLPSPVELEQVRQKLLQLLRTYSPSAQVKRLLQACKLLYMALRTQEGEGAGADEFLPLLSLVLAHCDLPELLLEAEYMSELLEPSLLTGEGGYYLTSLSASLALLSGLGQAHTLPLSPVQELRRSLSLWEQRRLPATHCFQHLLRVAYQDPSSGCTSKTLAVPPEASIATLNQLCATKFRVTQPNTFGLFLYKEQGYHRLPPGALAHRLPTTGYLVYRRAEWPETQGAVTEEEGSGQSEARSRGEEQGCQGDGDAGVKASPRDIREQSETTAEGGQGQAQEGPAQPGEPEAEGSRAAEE
Chain of 1-phosphatidylinositol 4,5-bisphosphate phosphodiesterase beta-3 (Q01970 whole entry): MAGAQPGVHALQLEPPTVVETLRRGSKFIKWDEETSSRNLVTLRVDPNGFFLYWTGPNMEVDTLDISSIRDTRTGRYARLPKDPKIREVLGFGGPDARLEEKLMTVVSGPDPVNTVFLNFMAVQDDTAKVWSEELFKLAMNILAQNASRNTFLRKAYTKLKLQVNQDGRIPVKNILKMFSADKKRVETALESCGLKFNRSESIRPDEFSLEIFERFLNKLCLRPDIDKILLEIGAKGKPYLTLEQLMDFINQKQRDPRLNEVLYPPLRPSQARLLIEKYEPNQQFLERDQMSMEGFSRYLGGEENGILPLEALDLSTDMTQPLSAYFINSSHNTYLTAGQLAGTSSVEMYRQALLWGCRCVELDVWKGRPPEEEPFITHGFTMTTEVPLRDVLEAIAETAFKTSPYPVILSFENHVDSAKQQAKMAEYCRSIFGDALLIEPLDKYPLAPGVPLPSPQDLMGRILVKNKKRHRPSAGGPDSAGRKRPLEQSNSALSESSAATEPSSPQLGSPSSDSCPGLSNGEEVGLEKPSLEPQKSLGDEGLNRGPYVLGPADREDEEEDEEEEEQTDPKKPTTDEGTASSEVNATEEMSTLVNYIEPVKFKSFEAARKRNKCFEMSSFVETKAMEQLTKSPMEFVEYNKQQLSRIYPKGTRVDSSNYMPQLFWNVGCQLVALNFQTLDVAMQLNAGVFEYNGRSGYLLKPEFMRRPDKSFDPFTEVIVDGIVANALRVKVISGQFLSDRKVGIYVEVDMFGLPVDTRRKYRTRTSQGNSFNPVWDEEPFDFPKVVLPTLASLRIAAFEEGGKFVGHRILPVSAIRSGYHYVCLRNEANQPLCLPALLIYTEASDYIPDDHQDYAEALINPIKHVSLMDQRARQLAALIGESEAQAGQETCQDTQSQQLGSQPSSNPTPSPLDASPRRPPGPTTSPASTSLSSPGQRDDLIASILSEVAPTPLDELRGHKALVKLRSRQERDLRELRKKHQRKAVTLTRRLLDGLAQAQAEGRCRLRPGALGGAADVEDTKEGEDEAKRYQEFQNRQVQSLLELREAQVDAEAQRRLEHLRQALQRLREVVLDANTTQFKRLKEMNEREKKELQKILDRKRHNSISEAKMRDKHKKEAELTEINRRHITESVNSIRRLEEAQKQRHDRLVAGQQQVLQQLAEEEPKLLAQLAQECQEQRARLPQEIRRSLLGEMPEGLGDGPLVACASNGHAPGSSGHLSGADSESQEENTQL
Chain of Serine/threonine-protein phosphatase (Q9BPW0 whole entry): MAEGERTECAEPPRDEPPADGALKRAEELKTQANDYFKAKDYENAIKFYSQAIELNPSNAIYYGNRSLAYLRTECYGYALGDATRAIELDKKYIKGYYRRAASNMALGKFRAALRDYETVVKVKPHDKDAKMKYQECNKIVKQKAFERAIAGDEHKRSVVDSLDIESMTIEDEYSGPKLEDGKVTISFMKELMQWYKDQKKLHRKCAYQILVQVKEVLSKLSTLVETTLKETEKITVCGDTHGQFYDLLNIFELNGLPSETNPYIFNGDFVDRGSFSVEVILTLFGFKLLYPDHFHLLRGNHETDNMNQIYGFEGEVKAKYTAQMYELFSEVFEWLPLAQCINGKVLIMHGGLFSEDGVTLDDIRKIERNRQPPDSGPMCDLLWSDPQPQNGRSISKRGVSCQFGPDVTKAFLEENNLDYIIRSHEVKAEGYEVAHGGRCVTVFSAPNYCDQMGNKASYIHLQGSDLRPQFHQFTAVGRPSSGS
Chain of ORF 73 (O40947 whole entry): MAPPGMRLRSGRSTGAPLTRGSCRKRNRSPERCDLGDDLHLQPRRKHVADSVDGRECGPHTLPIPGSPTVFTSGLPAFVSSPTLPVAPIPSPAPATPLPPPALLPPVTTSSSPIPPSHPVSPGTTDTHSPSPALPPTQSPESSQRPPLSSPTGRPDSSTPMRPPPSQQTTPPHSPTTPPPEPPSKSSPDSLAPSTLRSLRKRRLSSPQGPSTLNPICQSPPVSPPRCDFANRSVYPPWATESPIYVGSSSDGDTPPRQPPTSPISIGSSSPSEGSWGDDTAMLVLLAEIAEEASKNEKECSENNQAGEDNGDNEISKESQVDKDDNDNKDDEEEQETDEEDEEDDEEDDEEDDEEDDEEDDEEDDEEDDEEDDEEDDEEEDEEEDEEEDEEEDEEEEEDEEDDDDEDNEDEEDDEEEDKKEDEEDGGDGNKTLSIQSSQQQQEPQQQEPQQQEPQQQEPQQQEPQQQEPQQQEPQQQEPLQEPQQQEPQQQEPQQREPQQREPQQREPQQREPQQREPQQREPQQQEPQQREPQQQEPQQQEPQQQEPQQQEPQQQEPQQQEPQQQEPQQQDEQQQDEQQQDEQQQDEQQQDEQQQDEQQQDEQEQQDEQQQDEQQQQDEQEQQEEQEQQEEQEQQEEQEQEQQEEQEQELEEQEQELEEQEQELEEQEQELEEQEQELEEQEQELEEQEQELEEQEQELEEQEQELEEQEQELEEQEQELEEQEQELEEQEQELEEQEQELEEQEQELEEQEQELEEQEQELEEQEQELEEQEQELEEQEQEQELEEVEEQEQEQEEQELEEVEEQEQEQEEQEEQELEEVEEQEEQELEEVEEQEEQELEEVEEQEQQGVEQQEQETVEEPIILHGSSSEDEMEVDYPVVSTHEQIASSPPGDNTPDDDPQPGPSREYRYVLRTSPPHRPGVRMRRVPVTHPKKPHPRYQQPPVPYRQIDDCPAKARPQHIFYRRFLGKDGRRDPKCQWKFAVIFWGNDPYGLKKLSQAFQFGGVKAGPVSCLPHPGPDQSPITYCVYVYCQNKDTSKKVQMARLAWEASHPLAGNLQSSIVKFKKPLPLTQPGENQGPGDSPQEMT

In the case of `COC(=O)c1cc(C)nc2c1C(=O)C(=O)C=C2N1CCOCC1`, in assay [1], the EC50 is > 16 µM (not active). In addition, the results for the IC50 (at Hexokinase HKDC1; in assay [2]) were 4.41 µM (active) and > 123 µM (inactive), respectively.

`NS(=O)(=O)c1cc(C(=O)NC2CCSc3ccccc32)ccc1Cl` (centres undefined): the IC50 in [3] was > 55.7 µM (not active); in assay [4], 0.121 µM (active); in assay [5] it was > 100 µM (inactive) and 82.8 nM (active). Moreover, the AC50 on ORF 73 is 10.1 µM (active).

Consider `CCOC(=O)C1=C(C)OC2(O)c3ccccc3C(=O)C12O` (centres undefined), for which the IC50 is > 67 µM (not active) in assay [6], > 100 µM (inactive) at Caspase-3, 11.1 µM (inactive) in [7] and 0.428 µM (active) in assay [8].

On to `O=C1c2ccccc2C(=O)c2[nH]c(O)nc21`, for which the EC50 in assay [9] was 4.26 µM (active). The results for the IC50 in assay [10] and in [11] were 1.81 µM (active) and > 119 µM (inactive), respectively.
